Literature values as cited in patent US20070010756A1 (priority 2005, published 2007).

System: patients
Details: in vivo

## CC(C)c1cccc(C(C)C)c1O [propofol]
  BIS value at which 50 percent of the patients had lost consciousness (95 percent confidence interval): 61 (59-62)
  Response Entropy (RE) value at which 50 percent of the patients had lost consciousness (95 percent confidence interval): 70 (68-72)
  State Entropy (SE) value at which 50 percent of the patients had lost consciousness (95 percent confidence interval): 64 (62-66)
